Laboratory results taken from patent US11993598B2, “Compounds for inhibiting EGFR kinase, preparation methods and uses thereof” (WIGEN BIOMEDICINE TECHNOLOGY (SHANGHAI) CO., LTD., priority 2019, dated 2024).

Key:
HER2 = HER2 (Homo sapiens, UniProt P04626); assay: HER2 biochemical activity assay (HTRF)
Experimental: Assay 1: Wild-type EGFR, HER2 and HER4, and mutant EGFR biochemical activity assay
10 nL of Serially diluted compounds were transferred to assay plates using the labcyte Echo 550, and 5 uL of 2× enzymes in assay buffer were subsequently dispensed. The assay plate was covered with an adhesive plate seal, and briefly spinned for 30 s at 1000 g. 5 uL of 2× TK-substrate-biotin and ATP mixed in assay buffer were added.
IC50 was calculated and analyzed using a 4 parametric logistic model.

H1975 = assay: Cell line-derived xenograft (CDX) mouse model; assay type: in vivo, nude mice
Experimental: (§1) Assay 3. In vivo studies in cell line-derived (CDX) and patient derived xenografts (PDX) mouse models
(§2) Cells (H1975) or tissue pieces (LU0493 and LU0426) were implanted subcutaneously into the left armpit of nude mice. When the average tumor volume reached 100-150 mm^3, mice were randomized by tumor volume and treated with vehicle, compound 1 or poziotinib respectively. Tumor volume and body weight were measured twice per week. Mice were sacrificed on day 21 or day 28, and tumor volume and terminal body weight were recorded. The relative tumor volume, percent of treatment/control values and tumor growth inhibition were calculated and statistics was performed.
(§3) Terminal body weight changes were calculated as percentage of body changes from day 1 to day 21.

[1] = test system: PC9 cells expressing luciferase; assay: In vivo orthotopic brain PC9 xenograft mouse model; conditions: oral
Experimental: Assay 4. In vivo orthotopic brain PC9 xenograft mouse model
3×10^5 PC9 cells expressing luciferase were injected to the mouse brain. Mice were randomized based on brain flurorescence intensity and body weight, and were orally administered vehicle or compound 1. Survival and body weights were monitored every day and mice with more than 20% body weight loss were sacrificed.

[2] = test system: tumor growth with EGFR exon 20 insertions and T790M mutations; assay: In vivo CDX and PDX mouse models, overall statement; parameters: species or system nude mice
Experimental: as §1, §2, §3

HER2, sequence (P04626 23-1255): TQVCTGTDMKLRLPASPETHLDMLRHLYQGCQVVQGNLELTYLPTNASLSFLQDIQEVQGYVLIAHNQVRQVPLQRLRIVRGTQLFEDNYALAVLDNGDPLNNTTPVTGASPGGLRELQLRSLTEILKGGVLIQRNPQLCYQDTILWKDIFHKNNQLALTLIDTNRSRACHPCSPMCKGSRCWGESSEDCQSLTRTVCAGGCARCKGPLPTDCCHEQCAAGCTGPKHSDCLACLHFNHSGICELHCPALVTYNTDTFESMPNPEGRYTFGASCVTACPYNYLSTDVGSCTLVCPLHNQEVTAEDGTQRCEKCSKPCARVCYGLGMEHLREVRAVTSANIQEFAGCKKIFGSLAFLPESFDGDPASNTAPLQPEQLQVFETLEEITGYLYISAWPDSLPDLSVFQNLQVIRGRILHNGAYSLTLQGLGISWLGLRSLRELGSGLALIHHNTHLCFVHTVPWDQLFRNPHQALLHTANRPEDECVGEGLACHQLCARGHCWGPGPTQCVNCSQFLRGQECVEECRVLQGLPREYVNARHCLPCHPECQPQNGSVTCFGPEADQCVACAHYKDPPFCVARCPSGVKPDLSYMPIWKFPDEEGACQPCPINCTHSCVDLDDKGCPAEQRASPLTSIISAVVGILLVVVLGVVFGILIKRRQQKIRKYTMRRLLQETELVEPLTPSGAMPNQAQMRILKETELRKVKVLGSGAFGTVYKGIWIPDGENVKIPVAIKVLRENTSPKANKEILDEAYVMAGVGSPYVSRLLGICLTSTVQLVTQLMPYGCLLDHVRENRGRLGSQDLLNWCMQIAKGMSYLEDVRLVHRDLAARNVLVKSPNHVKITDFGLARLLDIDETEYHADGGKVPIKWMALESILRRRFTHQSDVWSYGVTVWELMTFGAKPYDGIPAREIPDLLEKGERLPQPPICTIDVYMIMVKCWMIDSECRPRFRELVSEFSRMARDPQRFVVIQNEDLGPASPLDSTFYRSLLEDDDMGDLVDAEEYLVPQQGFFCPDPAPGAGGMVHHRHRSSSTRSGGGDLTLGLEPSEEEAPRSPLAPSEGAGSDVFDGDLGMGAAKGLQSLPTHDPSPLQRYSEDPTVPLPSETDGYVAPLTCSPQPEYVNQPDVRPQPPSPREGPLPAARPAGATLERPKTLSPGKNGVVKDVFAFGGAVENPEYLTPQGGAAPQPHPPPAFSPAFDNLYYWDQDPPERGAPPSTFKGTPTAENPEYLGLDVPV

SMILES: C=CC(=O)Nc1cc(Nc2nccc(-n3c(=O)n4c5c(cc(F)cc53)CCC4)n2)c(OC)cc1N(C)CCN(C)C [Compound 1, N-(2-((2-(dimethylamino)ethyl)(methyl)amino)-5-((4-(8-fluoro-2-oxo-5,6-dihydro-4H-imidazo[4,5,1-ij]quinolin-1(2H)-yl)pyrimidin-2-yl)amino)-4-methoxyphenyl)acrylamide]
- IC50 (HER2): 35.1 nM
- TGI (%) (H1975; H1975, 15 mg/kg compound 1): 98%
- Terminal body weight changes (%) (H1975; H1975, 15 mg/kg compound 1, day 1 to day 21): 3.9%
- TGI (%) (H1975; H1975, 30 mg/kg compound 1): 106%
- Terminal body weight changes (%) (H1975; H1975, 30 mg/kg compound 1, day 1 to day 21): 5.1%
- TGI (%) (H1975; H1975, 60 mg/kg compound 1): 108%
- Terminal body weight changes (%) (H1975; H1975, 60 mg/kg compound 1, day 1 to day 21): −4.1%
- Mice Survival Rate (%) ([1]; 30 mg/kg QD, Day 16): 100%
- Mice Survival Rate (%) ([1]; 30 mg/kg QD, Day 17): 100%
- Mice Survival Rate (%) ([1]; 30 mg/kg QD, Day 18): 100%
- Mice Survival Rate (%) ([1]; 30 mg/kg QD, Day 22): 100%
- Mice Survival Rate (%) ([1]; 30 mg/kg QD, Day 24): 100%
- Mice Survival Rate (%) ([1]; 30 mg/kg QD, Day 26): 100%
- Mice Survival Rate (%) ([1]; 30 mg/kg QD, Day 28): 100%
- Mice Survival Rate (%) ([1]; 60 mg/kg BID, Day 16): 100%
- Mice Survival Rate (%) ([1]; 60 mg/kg BID, Day 17): 100%
- Mice Survival Rate (%) ([1]; 60 mg/kg BID, Day 18): 100%
- Mice Survival Rate (%) ([1]; 60 mg/kg BID, Day 22): 100%
- Mice Survival Rate (%) ([1]; 60 mg/kg BID, Day 24): 100%
- Mice Survival Rate (%) ([1]; 60 mg/kg BID, Day 26): 100%
- Mice Survival Rate (%) ([1]; 60 mg/kg BID, Day 28): 100%
- Mice Survival Rate (%) ([1]; 60 mg/kg QD, Day 16): 100%
- Mice Survival Rate (%) ([1]; 60 mg/kg QD, Day 17): 100%
- Mice Survival Rate (%) ([1]; 60 mg/kg QD, Day 18): 100%
- Mice Survival Rate (%) ([1]; 60 mg/kg QD, Day 22): 100%
- Mice Survival Rate (%) ([1]; 60 mg/kg QD, Day 24): 100%
- Mice Survival Rate (%) ([1]; 60 mg/kg QD, Day 26): 100%
- Mice Survival Rate (%) ([1]; 60 mg/kg QD, Day 28): 100%
- impact on body weight compared to poziotinib, in words [2]: less impacts on body weight
